Source: patent US7495003B2, “8-(3-amino-piperidin-1-yl)-7-(but-2-ynyl)-xanthines, the preparation thereof and their use as pharmaceutical compositions” (Boehringer Ingelheim International GmbH, priority 2004, dated 2009)

Columns and labels:
DPP-IV = molecular target: T1, DPP-IV (Homo sapiens, UniProt P27487); assay: DPP-IV assay with extract of Caco-2 cells as DPP IV source (AFC substrate, fluorescence); assay type: biochemical; settings: extract of human colon carcinoma cell line Caco-2; substrate 100 μM; 60 minutes at ambient temperature; read-out: DPP IV inhibition IC50
T1 construct: an extract of the human colon carcinoma cell line Caco-2 is used as the DPP IV source; endogenous in cells; host or cells: Caco-2 (human colon carcinoma), differentiated to induce DPP-IV expression; Nonidet-P40 solubilised extract
Method: The differentiation of the cells in order to induce the DPP-IV expression was carried out in accordance with the description by Reiher et al. in an article entitled “Increased expression of intestinal cell line Caco-2”, which appeared in Proc. Natl. Acad. Sci. Vol. 90, pp. 5757-5761 (1993). The cell extract was obtained from cells solubilised in a buffer (10 mM Tris HCl, 0.15 M NaCl, 0.04 t.i.u. aprotinin, 0.5% Nonidet-P40, pH 8.0) by centrifugation at 35,000 g for 30 minutes at 4° C. (to remove cell debris).
The DPP-IV assay was carried out as follows:
50 μl of substrate solution (AFC; AFC is amido-4-trifluoromethylcoumarin), final concentration 100 μM, were placed in black microtitre plates. 20 μl of assay buffer (final concentrations 50 mM Tris HCl pH 7.8, 50 mM NaCl, 1% DMSO) was pipetted in. The reaction was started by the addition of 30 μl of solubilised Caco-2 protein (final concentration 0.14 μg of protein per well). The test substances under investigation were typically added prediluted to 20 μl, while the volume of assay buffer was then reduced accordingly. […] Then the fluorescence was measured in a Victor 1420 Multilabel Counter, with the excitation wavelength at 405 nm and the emission wavelength at 535 nm. […] The potency of the test substances in question, expressed as IC50 values, were calculated from dosage/activity curves consisting of 11 measured points in each case.

rats = assay: Tolerability in rats after oral administration; assay type: in vivo; settings: oral administration of 10 mg/kg

T1 sequence (P27487 whole entry): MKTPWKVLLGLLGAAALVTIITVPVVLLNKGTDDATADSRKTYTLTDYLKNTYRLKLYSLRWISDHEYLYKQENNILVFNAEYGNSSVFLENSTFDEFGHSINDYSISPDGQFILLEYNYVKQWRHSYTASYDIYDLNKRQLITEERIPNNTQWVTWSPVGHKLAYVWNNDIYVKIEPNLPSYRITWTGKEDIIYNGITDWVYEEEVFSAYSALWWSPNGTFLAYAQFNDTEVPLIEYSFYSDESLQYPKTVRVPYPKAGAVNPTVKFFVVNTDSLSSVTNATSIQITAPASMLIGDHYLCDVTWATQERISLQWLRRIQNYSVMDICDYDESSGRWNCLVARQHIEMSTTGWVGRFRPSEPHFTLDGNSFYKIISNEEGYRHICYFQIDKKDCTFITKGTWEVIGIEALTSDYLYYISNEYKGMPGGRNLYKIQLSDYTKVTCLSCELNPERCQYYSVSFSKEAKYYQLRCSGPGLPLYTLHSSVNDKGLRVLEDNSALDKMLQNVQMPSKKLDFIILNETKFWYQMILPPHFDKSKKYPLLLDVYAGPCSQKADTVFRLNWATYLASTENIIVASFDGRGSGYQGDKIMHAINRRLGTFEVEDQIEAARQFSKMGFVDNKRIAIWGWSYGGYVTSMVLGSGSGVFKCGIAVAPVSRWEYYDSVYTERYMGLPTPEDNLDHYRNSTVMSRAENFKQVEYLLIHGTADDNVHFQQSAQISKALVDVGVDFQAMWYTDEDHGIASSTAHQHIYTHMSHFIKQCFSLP

Row | Compound | IC50 (DPP-IV) [nM] | toxic side effects (rats)
1 | CC#CCn1c(N2CCC[C@@H](N)C2)nc2c1c(=O)n(Cc1nc(C)c3ccccc3n1)c(=O)n2CC(=O)OC [Example 1(2), (R)-1-(4-methyl-quinazolin-2-ylmethyl)-3-(methoxycarbonylmethyl)-7-(but-2-ynyl)-8-(3-amino-piperidin-1-yl)-xanthine] | 3 | no toxic side effects could be detected
2 | CC#CCn1c(N2CCC[C@@H](N)C2)nc2c1c(=O)n(Cc1nc(C)c3ccccc3n1)c(=O)n2CC(=O)OCC [1(3), (R)-1-(4-methyl-quinazolin-2-ylmethyl)-3-(ethoxycarbonylmethyl)-7-(but-2-ynyl)-8-(3-amino-piperidin-1-yl)-xanthine] | 3 | –
